Laboratory results reported in PubChem BioAssay (NCI).
Where “and” joins values, the source holds several entries; their conditions need not be identical. Equal values may be shown once.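 Assay format: 96-well plates, 48-hour exposure. GI50: concentration for 50% inhibition of growth. TGI: total growth inhibition.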

Assays:
Experiment in all cases: NCI-60 cell line screen, 48 h
[1] = tested on: NCI-H522 lung
[2] = tested on: MCF7 breast
[3] = tested on: DU-145 prostate
[4] = tested on: COLO 205 colon
[5] = tested on: SN12C renal
[6] = tested on: MDA-MB-231 breast
[7] = tested on: HT29 colon
[8] = tested on: SK-MEL-5 melanoma
[9] = tested on: SR leukemia
[10] = tested on: LOX IMVI melanoma

O=C1CSC(/C(=C\c2ccc(Cl)cc2)c2nc3ccccc3[nH]2)=N1 gave a TGI [1] of 12.6 µM, a TGI [2] of 28.7 µM and a TGI [3] of 26.2 µM. It also gave a TGI [4] of 36.4 µM, a TGI [5] of 34.2 µM and a TGI [6] of 28.3 µM. The TGI [7] was 46.5 µM, the TGI [8] was 24.6 µM and the TGI [9] was 94.4 µM. The TGI [10] was 32.4 µM.

COC(=O)c1c2c(c(C)[n+]([O-])c1C)C(=O)C=C(NCc1ccc(F)c(F)c1)C2=O gave a GI50 [1] of 0.286 µM, a TGI [1] of 1.35 µM and a GI50 [2] of 0.255 µM. For the same compound, the TGI [2] was 0.891 µM, the GI50 [3] was 1.06 µM and the TGI [3] was 2.28 µM. It also gave a GI50 [4] of 0.257 µM, a TGI [4] of 0.713 µM and a GI50 [5] of 0.294 µM. It also gave a TGI [5] of 1.03 µM, a GI50 [6] of 0.251 µM and a TGI [6] of 1.83 µM. It also gave a GI50 [7] of 0.304 µM, a TGI [7] of 3.17 µM and a GI50 [8] of 0.167 µM. It also gave a TGI [8] of 0.308 µM, a GI50 [9] of 0.373 µM and a TGI [9] of 4.06 µM. The GI50 [10] was 0.0825 µM and the TGI [10] was 1.39 µM.

For CCN1C(=S)N(CC)C2C1NC(=S)N2/N=C/C=C/c1ccccc1 (centres undefined), the GI50 [1] was 0.739 µM, the TGI [1] was 3.7 µM and the GI50 [2] was 0.513 µM. For the same compound, the TGI [2] was 16.4 µM, the GI50 [3] was 2.42 µM and the TGI [3] was 12.2 µM. The GI50 [4] was 1.11 µM, the TGI [4] was 4.4 µM and the GI50 [5] was 3.49 µM. It also gave a TGI [5] of 16.8 µM, a GI50 [6] of 2.75 µM and a TGI [6] of 14.6 µM. The GI50 [7] was 0.511 µM, the TGI [7] was 12.1 µM and the GI50 [8] was 1.19 µM. For the same compound, the TGI [8] was 10.7 µM, the GI50 [9] was 0.347 µM and the TGI [9] was 5.92 µM. It also gave a GI50 [10] of 2.81 µM and a TGI [10] of 17 µM.

With Cc1sc(C)c(Cc2c(C)sc(C)c2CCl)c1CCl the GI50 [1] was greater than 100 µM, the TGI [1] was greater than 100 µM and the GI50 [2] was greater than 100 µM. For the same compound, the TGI [2] was greater than 100 µM, the GI50 [3] was greater than 100 µM and the TGI [3] was greater than 100 µM. It also gave a GI50 [4] greater than 100 µM, a TGI [4] greater than 100 µM and a GI50 [5] greater than 100 µM. It also gave a TGI [5] greater than 100 µM, a GI50 [6] greater than 100 µM and a TGI [6] greater than 100 µM. The GI50 [7] was greater than 100 µM, the TGI [7] was greater than 100 µM and the GI50 [8] was greater than 100 µM. It also gave a TGI [8] greater than 100 µM, a GI50 [9] greater than 100 µM and a TGI [9] greater than 100 µM. For the same compound, the GI50 [10] was greater than 100 µM and the TGI [10] was greater than 100 µM.

In the case of Cc1cc(C)c(C[N+](C)(C)C)c(C)c1C, the GI50 [1] is reported as 0.208 µM, the TGI [1] is reported as 2.61 µM and the GI50 [2] is reported as 0.289 µM. For the same compound, the TGI [2] was 15.2 µM, the GI50 [3] was 0.347 µM and the TGI [3] was 11.4 µM. It also gave a GI50 [4] of 0.236 µM, a TGI [4] of 1.85 µM and a GI50 [5] of 0.212 µM. The TGI [5] was 23.4 µM, the GI50 [6] was 0.471 µM and the TGI [6] was 25.8 µM. It also gave a GI50 [7] of 0.388 µM, a TGI [7] of 17.4 µM and a GI50 [8] of 0.209 µM. It also gave a TGI [8] of 2.82 µM, a GI50 [9] of 0.821 µM and a TGI [9] greater than 41.1 µM. For the same compound, the GI50 [10] was 0.306 µM and the TGI [10] was 9.13 µM.

For O=c1nc(Nc2cccc(Cl)c2)oc2cc(Cl)oc(=O)c12, the GI50 [1] was 2.45 µM, the TGI [1] was 8.16 µM and the GI50 [2] was 4.33 µM. The TGI [2] was 20.9 µM, the GI50 [3] was 10.4 µM and the TGI [3] was 25.3 µM. It also gave a GI50 [4] of 10.8 µM, a TGI [4] of 23.7 µM and a GI50 [5] of 10.4 µM. For the same compound, the TGI [5] was greater than 100 µM, the GI50 [6] was 5.78 µM and the TGI [6] was 30.9 µM. The GI50 [7] was 9.39 µM, the TGI [7] was 29.3 µM and the GI50 [8] was 18.2 µM. For the same compound, the TGI [8] was 54.5 µM, the GI50 [9] was 2.88 µM and the TGI [9] was 12.4 µM. For the same compound, the GI50 [10] was 11.9 µM and the TGI [10] was greater than 100 µM.

For C=C1C(=O)OC2CC1C(O)C/C(C)=C/CC/C(C)=C/C(O)CC2C (centres undefined), the TGI [1] was 0.504 µM, the TGI [2] was 7.44 µM and the TGI [3] was 10.8 µM. The TGI [4] was 2.94 µM, the TGI [5] was 4.83 µM and the TGI [6] was 12.4 µM. The TGI [7] was 4.61 µM, the TGI [8] was 15.4 µM and the TGI [9] was 2.61 µM. The TGI [10] was 2.74 µM.

With COc1cc2c3c(c1)c1cc(OC)c(OC)cc1c[n+]3CC2 the GI50 [1] was 1.93 µM, the TGI [1] was 14.8 µM and 37.1 µM and the GI50 [2] was 21.3 µM. For the same compound, the TGI [2] was 50 µM and > 100 µM, the GI50 [3] was 40.3 µM and the TGI [3] was 50 µM and > 100 µM. The GI50 [4] was 14.8 µM, the TGI [4] was 50 µM and > 100 µM and the GI50 [5] was 5.66 µM. For the same compound, the TGI [5] was 15.6 µM and > 100 µM, the GI50 [6] was greater than 100 µM and the TGI [6] was greater than 100 µM. The GI50 [7] was 37.2 µM, the TGI [7] was 50 µM and > 100 µM and the GI50 [8] was 11.8 µM. The TGI [8] was 50 µM and 36.6 µM, the TGI [9] was 50 µM and the GI50 [10] was 35.5 µM. For the same compound, the TGI [10] was 50 µM and > 100 µM.

For CN1CCCN(C)C1c1cc([N+](=O)[O-])ccc1O, the TGI [1] was greater than 100 µM, the TGI [2] was 63.3 µM and the TGI [3] was greater than 100 µM. The TGI [4] was greater than 100 µM, the TGI [5] was 85.7 µM and the TGI [6] was greater than 100 µM. The TGI [7] was greater than 100 µM, the TGI [8] was 48.4 µM and the TGI [9] was 59.3 µM. For the same compound, the TGI [10] was greater than 100 µM.

C#CC1(O)C(COP(=O)(O)OC2CC(n3cc(F)c(=O)[nH]c3=O)OC2CO)OC(n2ccc(N)nc2=O)C1O (centres undefined) showed a GI50 [1] of less than 0.014 µM, a TGI [1] of 3.15 µM and a GI50 [2] of less than 0.01 µM. The TGI [2] was 0.137 µM, the GI50 [3] was less than 0.011 µM and the TGI [3] was 3.62 µM. The GI50 [4] was less than 0.01 µM, the TGI [4] was 1.61 µM and the GI50 [5] was less than 0.0106 µM. For the same compound, the TGI [5] was greater than 100 µM, the GI50 [6] was 0.0731 µM and the TGI [6] was greater than 61.9 µM. The GI50 [7] was less than 0.0139 µM, the TGI [7] was greater than 100 µM and the GI50 [8] was less than 0.0154 µM. The TGI [8] was 0.196 µM, the GI50 [9] was less than 0.01 µM and the TGI [9] was 0.142 µM. The GI50 [10] was less than 0.01 µM and the TGI [10] was 1.87 µM.

For CC(C)c1ccc(C(=O)Nc2sc3c(c2C#N)CCC(=O)C3)cc1, the GI50 [1] was 0.248 µM, the TGI [1] was 2.16 µM and the GI50 [2] was 0.337 µM. It also gave a TGI [2] greater than 45 µM, a GI50 [3] of 4.26 µM and a TGI [3] greater than 100 µM. For the same compound, the GI50 [4] was 0.49 µM, the TGI [4] was 2.87 µM and the GI50 [5] was 0.378 µM. It also gave a TGI [5] greater than 100 µM, a GI50 [6] of 0.594 µM and a TGI [6] of 2.88 µM. It also gave a GI50 [7] of 0.465 µM, a TGI [7] greater than 21.9 µM and a GI50 [8] of 0.979 µM. It also gave a TGI [8] of 2.52 µM, a GI50 [9] of 0.424 µM and a TGI [9] greater than 100 µM. For the same compound, the GI50 [10] was 0.39 µM and the TGI [10] was greater than 33.4 µM.
